Assay results: article PMC8757610, “Design, synthesis, and biological evaluation of arylmethylpiperidines as Kv1.5 potassium channel inhibitors” (Journal of Enzyme Inhibition and Medicinal Chemistry, 2022)
Where a name gives a salt, the structure may show the parent alone. Read-outs that look alike come from different tables or passages of the source.

Key:
Kv1.5 = details: in Figure 2, no reference given, cited from earlier work
hKv1.5 potassium channel = hKv1.5 potassium channel (Homo sapiens, UniProt P22460); assay: Whole-cell patch clamp assay on HEK 293 cells stably expressing hKv1.5; details: hKv1.5 IC50, whole-cell patch clamp, HEK 293 cells expressing hKv1.5, 25 °C, mean ± SD
SD rats [1] = assay: CaCl2-ACh induced AF model; assay type: in vivo, rat
[2] = Single-dose pharmacokinetics study; assay type: in vivo; details: beagle dogs, mean ± SD, n = 6
SD rats [3] = assay type: in vivo, rat
guinea pigs = assay: Preliminary safety evaluation by 12-lead electrocardiogram; assay type: in vivo
[4] = both sexes, beagle, dog, plasma, iv, 1 mg/kg, i.v. 1.00 mg/kg
[5] = cumulative i.v. 3 × 10^−7 to 3 × 10^−5 mol/kg

hKv1.5 potassium channel, sequence (P22460 whole entry): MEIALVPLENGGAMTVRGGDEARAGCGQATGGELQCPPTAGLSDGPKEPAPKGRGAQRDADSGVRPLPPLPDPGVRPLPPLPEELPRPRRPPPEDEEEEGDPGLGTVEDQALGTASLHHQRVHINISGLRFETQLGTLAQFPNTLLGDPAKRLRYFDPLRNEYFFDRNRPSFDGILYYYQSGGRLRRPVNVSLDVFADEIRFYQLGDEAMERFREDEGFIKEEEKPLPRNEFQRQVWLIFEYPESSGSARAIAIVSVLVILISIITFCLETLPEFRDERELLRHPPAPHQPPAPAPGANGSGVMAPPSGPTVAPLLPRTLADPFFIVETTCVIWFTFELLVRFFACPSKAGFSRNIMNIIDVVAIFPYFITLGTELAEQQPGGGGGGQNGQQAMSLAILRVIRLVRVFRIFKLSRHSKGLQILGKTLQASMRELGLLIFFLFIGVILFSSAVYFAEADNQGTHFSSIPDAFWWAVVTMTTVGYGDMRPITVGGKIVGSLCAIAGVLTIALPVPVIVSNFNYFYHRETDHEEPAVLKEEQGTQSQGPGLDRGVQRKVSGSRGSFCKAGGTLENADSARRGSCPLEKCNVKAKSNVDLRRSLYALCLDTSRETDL

Structure (SMILES): COc1ccc(CC(=O)NCc2ccccc2-c2ccccc2C(=O)NCCc2cccnc2)cc1 [AVE-0118]
- IC50 (Kv1.5; known Kv1.5 inhibitors): 1.1 µM

Structure (SMILES): COc1ccc(NC(=O)C2CCN(Cc3ccccc3)CC2)cc1 [DDO-02001, 1-benzyl-N-(4-methoxyphenyl) piperidine-4-carboxamide]
- IC50 (hKv1.5 potassium channel): 17.7 µM

Structure (SMILES): COc1ccc(NC(=O)C2CCN(Cc3nc4ccccc4o3)CC2)cc1 [DDO-02002, 1-(benzo[d]oxazol-2-ylmethyl)-N-(4-methoxyphenyl) piperidine-4-carboxamide]
- IC50 (hKv1.5 potassium channel): 8.96 ± 1.15 µM
- melting point: 190 to 194 °C

Structure (SMILES): Cl.Cl.c1ccc(CNC2CCN(Cc3nc4ccccc4o3)CC2)cc1 [DDO-02004, 1-(benzo[d]oxazol-2-ylmethyl)-N-benzylpiperidin-4-amine dihydrochloride]
- IC50 (hKv1.5 potassium channel): 0.95 ± 0.13 µM
- melting point: > 250 °C

Structure (SMILES): COc1ccc(CNC2CCN(Cc3nc4ccccc4o3)CC2)cc1.Cl.Cl [DDO-02005, 1-(benzo[d]oxazol-2-ylmethyl)-N-(4-methoxybenzyl)piperidin-4-amine dihydrochloride]
- atrial ERP (AERP) (SD rats [1]; AF rats, 2.5 mg/kg i.p.): increased to normal level
- ventricle ERP (VERP) (SD rats [1]; AF rats, 2.5 mg/kg i.p.): increased to normal level
- duration of AF (SD rats [1]; rats, 0.625, 1.25, 2.5 mg/kg i.p., Day 4 to Day 7): shortened significantly
- AF therapeutic effect compared with dronedarone (SD rats [1]; rats, dronedarone 1.25 mg/kg i.p. as positive control): better than that of dronedarone
- CL ([2]; i.v. 1.00 mg/kg, 1 mg/kg): 97.2 ± 24 mL/min/kg
- CL ([2]; p.o. 1.25 mg/kg): 608.5 ± 42.3 mL/min/kg
- Cmax ([2]; p.o. 1.25 mg/kg, 1.25 mg/kg): 1.27 ± 0.40 ng/mL
- t1/2 ([2]; p.o. 1.25 mg/kg, 1.25 mg/kg): 6.25 ± 2.40 h
- clearance [2, 4]: 97.2 mL/min/kg
- half-life [2, 4]: 3.23 ± 1.07 h
- Cmax ([2]; both sexes, beagle, dog, plasma, iv, 1 mg/kg, i.v. 1.00 mg/kg, read-out: Cmax): 90.2 ± 28.8 ng/mL
- half-life ([2]; both sexes, beagle, dog, plasma, po, 1.25 mg/kg, p.o. 1.25 mg/kg): 6.25 h
- Cmax ([2]; both sexes, beagle, dog, plasma, po, 1.25 mg/kg, p.o. 1.25 mg/kg, read-out: Cmax): 1.27 ng/mL
- AUC(0-t) ([2]; both sexes, dog, plasma, iv, i.v. 1.00 mg/kg): 178 ± 39.3 ng·h/mL
- AUC(0-t) ([2]; both sexes, dog, plasma, po, p.o. 1.25 mg/kg): 4.41 ± 0.69 ng·h/mL
- increase of aconitine required to cause arrhythmia versus model group (SD rats [3]; 0.1 mg/kg i.v.): 2%
- increase of aconitine required to cause arrhythmia versus model group (SD rats [3]; 1 mg/kg i.v.): 53%
- increase of aconitine required to cause arrhythmia versus model group (SD rats [3]; 3 mg/kg i.v.): 56%
- increase of aconitine required to cause arrhythmia versus model group (SD rats [3]; 9 mg/kg i.v.): 60%
- IC50 (hKv1.5 potassium channel): 0.72 ± 0.08 µM
- overall preliminary safety compared with Azimilide (guinea pigs; 12-lead electrocardiogram): safer than Azimilide
- effect on QT dispersion (QTd), compared with Azimilide (guinea pigs; [5]): less effect
- effect on QTcd, compared with Azimilide (guinea pigs; [5]): less effect
- heart rate of guinea pigs (guinea pigs; [5]): slowed down obviously
- heart rate, compared with Azimilide (guinea pigs; [5]): no statistically significant differences
- prolonging QT interval, compared with Azimilide (guinea pigs; [5]): no statistically significant differences
- prolonging QTc interval, compared with Azimilide (guinea pigs; [5]): no statistically significant differences

Structure (SMILES): Fc1ccc(CNC2CCN(Cc3nc4ccccc4o3)CC2)cc1 [DDO-02006, 1-(benzo[d]oxazol-2-ylmethyl)-N-(4-fluorobenzyl) piperidin-4-amine dihydrochloride]
- IC50 (hKv1.5 potassium channel): 3.24 ± 0.29 µM

Structure (SMILES): COc1ccccc1CNC1CCN(Cc2nc3ccccc3o2)CC1 [DDO-02007, 1-(benzo[d]oxazol-2-ylmethyl)-N-(2-methoxybenzyl)piperidin-4-amine dihydrochloride]
- IC50 (hKv1.5 potassium channel): > 20 µM

Structure (SMILES): Cc1ccc(CNC2CCN(Cc3nc4ccccc4o3)CC2)cc1 [DDO-02008, 1-(benzo[d]oxazol-2-ylmethyl)-N-(4-methylbenzyl)piperidin-4-amine dihydrochloride]
- IC50 (hKv1.5 potassium channel): > 20 µM

Structure (SMILES): c1ccc(CCNC2CCN(Cc3nc4ccccc4o3)CC2)cc1 [DDO-02009, 1-(benzo[d]oxazol-2-ylmethyl)-N-phenethylpiperidin-4-amine hydrochloride]
- IC50 (hKv1.5 potassium channel): > 20 µM

Structure (SMILES): CS(=O)(=O)Nc1cccc([C@H](c2ccc(F)cc2)C(c2cccnc2)c2cccnc2)n1 [MK-0448]
- IC50 (Kv1.5; known Kv1.5 inhibitor): 0.0108 µM

Structure (SMILES): Cc1ccc(S(=O)(=O)Nc2ccccc2C(=O)N(Cc2ccccc2)Cc2cccnc2)cc1 [S-0100176]
- IC50 (Kv1.5; known Kv1.5 inhibitors): 0.7 µM

Structure (SMILES): COc1ccc(CCO[C@@H]2CCCC[C@H]2N2CC[C@@H](O)C2)cc1OC [Vernakalant hydrochloride]
- IC50 (Kv1.5; known Kv1.5 inhibitors): 13 µM
